Data as given in US12077503B2, “Substituted cyclic amides and their use as herbicides” (FMC CORPORATION, priority 2015, dated 2024).

Key:
Type in all cases: in vivo
Kochia (Kochia scoparia) [1] = assay: Test A preemergence; settings: Bassia scoparia, pre-emergence, 240 h, 0 to 100 scale (0 no effect, 100 complete control), read-out: Plant response rating, Kochia; for pest or weed control at 500 g/ha: 500 g ai/ha, preemergence; for pest or weed control at 125 g/ha: Preemergence, 125 g ai/ha
In short: (§1)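 Seeds sprayed preemergence with a directed soil spray, or plants at 2 to 10 cm height and one- to two-leaf stage sprayed postemergence, with test chemicals in a non-phytotoxic solvent mixture containing surfactant, in loam soil–sand blend. Injury rated visually against untreated controls after about 10 d in greenhouse, 0 (no effect) to 100 (complete control).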

[2] = test system: barnyardgrass (Echinochloa crus-galli); assay: Test A preemergence; settings: Echinochloa crus-galli, pre-emergence, 240 h, 0 to 100 scale (0 no effect, 100 complete control), read-out: Plant response rating, Barnyardgrass; for pest or weed control at 500 g/ha: 500 g ai/ha, preemergence; for pest or weed control at 125 g/ha: Preemergence, 125 g ai/ha
In short: as §1

[3] = test system: giant foxtail (Setaria faberii); assay: Test A preemergence; settings: Setaria faberi, pre-emergence, 240 h, 0 to 100 scale (0 no effect, 100 complete control), read-out: Plant response rating, Foxtail, Giant; for pest or weed control at 500 g/ha: 500 g ai/ha, preemergence; for pest or weed control at 125 g/ha: Preemergence, 125 g ai/ha
In short: as §1

[4] = test system: pigweed (Amaranthus retroflexus); assay: Test A preemergence; settings: Amaranthus retroflexus, pre-emergence, 240 h, 0 to 100 scale (0 no effect, 100 complete control), read-out: Plant response rating, Pigweed; for pest or weed control at 500 g/ha: 500 g ai/ha, preemergence; for pest or weed control at 125 g/ha: Preemergence, 125 g ai/ha
[5] = test system: ragweed (common ragweed, Ambrosia elatior); assay: Test A preemergence; settings: Ambrosia artemisiifolia, pre-emergence, 240 h, 0 to 100 scale (0 no effect, 100 complete control), read-out: Plant response rating, Ragweed; for pest or weed control at 500 g/ha: 500 g ai/ha, preemergence; for pest or weed control at 125 g/ha: Preemergence, 125 g ai/ha
In short: as §1

[6] = test system: ryegrass, Italian (Italian ryegrass, Lolium multiflorum); assay: Test A preemergence; settings: Lolium multiflorum, pre-emergence, 240 h, 0 to 100 scale (0 no effect, 100 complete control), read-out: Plant response rating, Ryegrass, Italian; for pest or weed control at 500 g/ha: 500 g ai/ha, preemergence; for pest or weed control at 125 g/ha: Preemergence, 125 g ai/ha
In short: as §1

[7] = test system: Galium (catchweed bedstraw, Galium aparine); assay: Test A postemergence; settings: Galium, post-emergence, 240 h, Postemergence; for pest or weed control at 125 g/ha: 125 g ai/ha, visual rating about 10 d after treatment, read-out: Galium plant response rating (0 to 100 scale); for pest or weed control at 500 g/ha: 500 g ai/ha, visual injury, 0 to 100 scale (0 no effect, 100 complete control), approx. 10 d, read-out: Plant response rating, Galium
In short: as §1

Kochia (Kochia scoparia) [8] = assay: Test A postemergence; settings: Bassia scoparia, post-emergence, 240 h, Postemergence; for pest or weed control at 125 g/ha: 125 g ai/ha, visual rating about 10 d after treatment, read-out: Kochia plant response rating (0 to 100 scale); for pest or weed control at 500 g/ha: 500 g ai/ha, visual injury, 0 to 100 scale (0 no effect, 100 complete control), approx. 10 d, read-out: Plant response rating, Kochia
In short: as §1

[9] = test system: barnyardgrass (Echinochloa crus-galli); assay: Test A postemergence; settings: Echinochloa crus-galli, post-emergence, 240 h, Postemergence; for pest or weed control at 125 g/ha: 125 g ai/ha, visual rating about 10 d after treatment, read-out: Barnyardgrass plant response rating (0 to 100 scale, 0 no effect, 100 complete control); for pest or weed control at 500 g/ha: 500 g ai/ha, visual injury, 0 to 100 scale (0 no effect, 100 complete control), approx. 10 d, read-out: Plant response rating, Barnyardgrass
In short: as §1

[10] = test system: blackgrass (Alopecurus myosuroides); assay: Test A postemergence; settings: Alopecurus myosuroides, post-emergence, 240 h, Postemergence; for pest or weed control at 125 g/ha: 125 g ai/ha, visual rating about 10 d after treatment, read-out: Blackgrass plant response rating (0 to 100 scale); for pest or weed control at 500 g/ha: 500 g ai/ha, visual injury, 0 to 100 scale (0 no effect, 100 complete control), approx. 10 d, read-out: Plant response rating, Blackgrass
In short: as §1

corn (Zea mays) = assay: Test A postemergence; settings: Zea mays, post-emergence, 240 h, Postemergence; for plant injury at 125 g/ha: 125 g ai/ha, visual rating about 10 d after treatment, read-out: Corn plant response rating (0 to 100 scale); for Corn plant response rating (crop injury, 0 = no effect, 100 = complete kill) at 500 g/ha: 500 g ai/ha, visual injury, 0 to 100 scale (0 no effect, 100 complete control), approx. 10 d
In short: as §1

[11] = test system: giant foxtail (Setaria faberii); assay: Test A postemergence; settings: Setaria faberi, post-emergence, 240 h, Postemergence; for pest or weed control at 125 g/ha: 125 g ai/ha, visual rating about 10 d after treatment, read-out: Foxtail, Giant plant response rating (0 to 100 scale); for pest or weed control at 500 g/ha: 500 g ai/ha, visual injury, 0 to 100 scale (0 no effect, 100 complete control), approx. 10 d, read-out: Plant response rating, Foxtail, Giant
In short: as §1

[12] = test system: pigweed (Amaranthus retroflexus); assay: Test A postemergence; settings: Amaranthus retroflexus, post-emergence, 240 h, Postemergence; for pest or weed control at 125 g/ha: 125 g ai/ha, visual rating about 10 d after treatment, read-out: Pigweed plant response rating (0 to 100 scale); for pest or weed control at 500 g/ha: 500 g ai/ha, visual injury, 0 to 100 scale (0 no effect, 100 complete control), approx. 10 d, read-out: Plant response rating, Pigweed
In short: as §1

[13] = test system: ragweed (common ragweed, Ambrosia elatior); assay: Test A postemergence; settings: Ambrosia artemisiifolia, post-emergence, 240 h, Postemergence; for pest or weed control at 125 g/ha: 125 g ai/ha, visual rating about 10 d after treatment, read-out: Ragweed plant response rating (0 to 100 scale); for pest or weed control at 500 g/ha: 500 g ai/ha, visual injury, 0 to 100 scale (0 no effect, 100 complete control), approx. 10 d, read-out: Plant response rating, Ragweed
In short: as §1

[14] = test system: ryegrass, Italian (Italian ryegrass, Lolium multiflorum); assay: Test A postemergence; settings: Lolium multiflorum, post-emergence, 240 h, Postemergence; for pest or weed control at 125 g/ha: 125 g ai/ha, visual rating about 10 d after treatment, read-out: Ryegrass, Italian plant response rating (0 to 100 scale); for pest or weed control at 500 g/ha: 500 g ai/ha, visual injury, 0 to 100 scale (0 no effect, 100 complete control), approx. 10 d, read-out: Plant response rating, Ryegrass, Italian
In short: as §1

Structure (SMILES)	pest or weed control at 500 g/ha (Kochia (Kochia scoparia) [1]) [%]	pest or weed control at 125 g/ha (Kochia (Kochia scoparia) [1]) [%]	pest or weed control at 500 g/ha [2] [%]	pest or weed control at 125 g/ha [2] [%]	pest or weed control at 500 g/ha [3] [%]	pest or weed control at 125 g/ha [3] [%]	pest or weed control at 500 g/ha [4] [%]	pest or weed control at 125 g/ha [4] [%]	pest or weed control at 500 g/ha [5] [%]	pest or weed control at 125 g/ha [5] [%]	pest or weed control at 500 g/ha [6] [%]	pest or weed control at 125 g/ha [6] [%]	pest or weed control at 125 g/ha [7] [%]	pest or weed control at 500 g/ha [7] [%]	pest or weed control at 125 g/ha (Kochia (Kochia scoparia) [8]) [%]	pest or weed control at 500 g/ha (Kochia (Kochia scoparia) [8]) [%]	pest or weed control at 125 g/ha [9] [%]	pest or weed control at 500 g/ha [9] [%]	pest or weed control at 125 g/ha [10] [%]	pest or weed control at 500 g/ha [10] [%]	further results
C=CCOc1cccc(C2CN(C)C(=O)C2C(=O)Nc2ccccc2F)c1 (stereo not drawn) [Compound 1329]	50	50	100	90	90	90	30	0	20	0	40	0	30	60	40	50	90	90	20	60	plant injury at 125 g/ha (corn (Zea mays)): 30%; Corn plant response rating (crop injury, 0 = no effect, 100 = complete kill) at 500 g/ha (corn (Zea mays)): 50%; pest or weed control at 125 g/ha [11]: 90%; pest or weed control at 500 g/ha [11]: 90%; pest or weed control at 125 g/ha [12]: 0%; pest or weed control at 500 g/ha [12]: 0%; pest or weed control at 125 g/ha [13]: 0%; pest or weed control at 500 g/ha [13]: 0%; pest or weed control at 125 g/ha [14]: 0%; pest or weed control at 500 g/ha [14]: 50%
CN1CC[C@H](c2cccc(C(F)(F)F)c2)[C@@H](C(=O)Nc2cccc(F)c2F)C1=O [Compound 1330]	90	20	90	90	90	90	0	0	50	0	50	50	30	30	0	20	90	90	50	70	plant injury at 125 g/ha (corn (Zea mays)): 90%; Corn plant response rating (crop injury, 0 = no effect, 100 = complete kill) at 500 g/ha (corn (Zea mays)): 0%; pest or weed control at 125 g/ha [11]: 90%; pest or weed control at 500 g/ha [11]: 90%; pest or weed control at 125 g/ha [12]: 0%; pest or weed control at 500 g/ha [12]: 0%; pest or weed control at 125 g/ha [13]: 0%; pest or weed control at 500 g/ha [13]: 20%; pest or weed control at 125 g/ha [14]: 0%; pest or weed control at 500 g/ha [14]: 20%
